Measured values as given in US5556744A, “Methods and compositions for diagnosing and treating certain HIV infected patients” (The Trustees of the University of Pennsylvania, priority 1994, dated 1996).
“Also recorded” adds a separate entry of the source.

Assays:
[1] = test system: maternal serum samples (antibodies); experiment: ELISA peptide-binding of maternal sera, expanded peptide collection (Example 5); set-up: species or system human; conditions: for Binding / reactivity of maternal sera to peptide (in words): Example 5
Description: The gp120 and gp41 peptides used in this experiment include peptides 60 [SEQ ID NO:9], 93 [SEQ ID NO:10], 94 [SEQ ID NO:1], 95 [SEQ ID NO:11], 96 [SEQ ID NO:12], 97 [SEQ ID NO:13], 59 [SEQ ID NO:14], 106 [SEQ ID NO:15], 107 [SEQ ID NO:[…]], 1029/33 [SEQ ID NO:2], p18p [SEQ ID NO:17], B138 [SEQ ID NO:3], 466 [SEQ ID NO:4], 497 [SEQ ID NO:18], 117 [SEQ ID NO:19], F560 [SEQ ID NO:20], 35 [SEQ ID NO:5], 120 [SEQ ID NO:21], 121 [SEQ ID NO:22], 123 [SEQ ID NO:23], 36 [SEQ ID NO:24], 40 [SEQ ID NO:25], 41 [SEQ ID NO:26], 649 [SEQ ID NO:6], 53 [SEQ ID NO:7], 55 [SEQ ID NO:27], 128 [SEQ ID NO:28], 129 [SEQ ID NO:29], 132 [SEQ ID NO:30], 57 [SEQ ID NO:8], and 1103/55 [SEQ ID NO:31] from Table 2. These peptides were synthesized based on the same HIV IIIB isolate as were the peptides of Table 2. Alternative designations for these peptides are provided in brackets.
Each of the peptides was at least 85% pure, making them suitable for ELISA analyses. The average length of these peptides was 18 amino acid residues, which allows for a certain degree of local flexibility and conformational folding, thus facilitating detection of antibody species with reactivities to shaped structures.
The maternal serum samples were obtained from the Mothers/Infants Cohort Study described in Example 1. For the ELISA peptide-binding analyses performed essentially as described in Example 3, maternal serum samples were diluted to 1:50 or 1:500 with blocking buffer (1% bovine serum albumin in phosphate-buffered saline containing 0.05% Tween 20). Binding was measured using 10 μg/mL peptide per well and was considered positive if the experimental/control OD450nm ratio was ≥2. Normal (HIV seronegative) human sera were used as controls.

[2] = test system: maternal HIV+ sera (antibodies); experiment: RIA / ELISA binding of maternal HIV+ sera to gp120 and gp41 peptides (Example 3); set-up: species or system human
Procedure, shortened: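 Peptides were coated at 10 μg/ml in carbonate buffer pH 9.6 and blocked with 1% BSA. Sera at 1:50 and 1:500 were incubated overnight at 4°C and detected with ¹²⁵I anti-human IgG (RIA) or HRP/TMB at OD450 (ELISA). Specific binding was taken as peptide minus no-peptide wells, scored as a ratio to normal human serum.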

[3] = Serum No. 1, Non-Transmission Group
[4] = Serum No. 2, Non-Transmission Group
[5] = Serum No. 3, Non-Transmission Group
[6] = Serum No. 4, Transmission Group
[7] = Serum No. 5, Transmission Group
[8] = Serum No. 6, Non-Transmission Group
[9] = Serum No. 7, Non-Transmission Group
[10] = Serum No. 8, Non-Transmission Group
[11] = Serum No. 9, Non-Transmission Group
[12] = Serum No. 10, Transmission Group
[13] = Serum No. 11, Non-Transmission Group
[14] = Serum No. 12, Non-Transmission Group
[15] = Serum No. 13, Transmission Group
[16] = Serum No. 14, Transmission Group
[17] = Serum No. 15, Transmission Group
[18] = Serum No. 16, Non-Transmission Group
[19] = Serum No. 17, Non-Transmission Group
[20] = Serum No. 18, Non-Transmission Group
[21] = Serum No. 19, Transmission Group
[22] = Serum No. 20, Non-Transmission Group

Sequence | Binding / reactivity of maternal sera to peptide (in words) [1] | Binding of maternal HIV+ serum to peptide (sera/NHS ratio) [2, 3] | Binding of maternal HIV+ serum to peptide (sera/NHS ratio) [2, 4] | Binding of maternal HIV+ serum to peptide (sera/NHS ratio) [2, 5] | Binding of maternal HIV+ serum to peptide (sera/NHS ratio) [2, 6] | Binding of maternal HIV+ serum to peptide (sera/NHS ratio) [2, 7] | Binding of maternal HIV+ serum to peptide (sera/NHS ratio) [2, 8] | Binding of maternal HIV+ serum to peptide (sera/NHS ratio) [2, 9] | Binding of maternal HIV+ serum to peptide (sera/NHS ratio) [2, 10] | Binding of maternal HIV+ serum to peptide (sera/NHS ratio) [2, 11] | Binding of maternal HIV+ serum to peptide (sera/NHS ratio) [2, 12] | Binding of maternal HIV+ serum to peptide (sera/NHS ratio) [2, 13] | Binding of maternal HIV+ serum to peptide (sera/NHS ratio) [2, 14] | Binding of maternal HIV+ serum to peptide (sera/NHS ratio) [2, 15] | Binding of maternal HIV+ serum to peptide (sera/NHS ratio) [2, 16] | Binding of maternal HIV+ serum to peptide (sera/NHS ratio) [2, 17] | Binding of maternal HIV+ serum to peptide (sera/NHS ratio) [2, 18] | Binding of maternal HIV+ serum to peptide (sera/NHS ratio) [2, 19] | Binding of maternal HIV+ serum to peptide (sera/NHS ratio) [2, 20] | Binding of maternal HIV+ serum to peptide (sera/NHS ratio) [2, 21] | also measured
LGIWGCSGKLIC [Peptide 41-2] | Virtually all samples reacted; also recorded: recognized by the transmission group | – | – | – | – | – | – | – | – | – | – | – | – | – | – | – | – | – | – | – | Percent of both groups that bound to the peptide ([1]; transmission and non-transmission groups): 90%
LAVERYLKDQQLLGI [Peptide 121] | recognized by the transmission group | ++ (which value is greater than 3) | - (specific OD450 or cpm of sera sample binding to peptide divided by the specific OD450 or cpm of NHS sample binding to peptide, which value is less than 2) | - (specific OD450 or cpm of sera sample binding to peptide divided by the specific OD450 or cpm of NHS sample binding to peptide, which value is less than 2) | - (specific OD450 or cpm of sera sample binding to peptide divided by the specific OD450 or cpm of NHS sample binding to peptide, which value is less than 2) | - (specific OD450 or cpm of sera sample binding to peptide divided by the specific OD450 or cpm of NHS sample binding to peptide, which value is less than 2) | ++ (which value is greater than 3) | - (specific OD450 or cpm of sera sample binding to peptide divided by the specific OD450 or cpm of NHS sample binding to peptide, which value is less than 2) | - (specific OD450 or cpm of sera sample binding to peptide divided by the specific OD450 or cpm of NHS sample binding to peptide, which value is less than 2) | - (specific OD450 or cpm of sera sample binding to peptide divided by the specific OD450 or cpm of NHS sample binding to peptide, which value is less than 2) | - (specific OD450 or cpm of sera sample binding to peptide divided by the specific OD450 or cpm of NHS sample binding to peptide, which value is less than 2) | - (specific OD450 or cpm of sera sample binding to peptide divided by the specific OD450 or cpm of NHS sample binding to peptide, which value is less than 2) | - (specific OD450 or cpm of sera sample binding to peptide divided by the specific OD450 or cpm of NHS sample binding to peptide, which value is less than 2) | - (specific OD450 or cpm of sera sample binding to peptide divided by the specific OD450 or cpm of NHS sample binding to peptide, which value is less than 2) | ++ (which value is greater than 3) | ++ (which value is greater than 3) | ++ (which value is greater than 3) | ++ (which value is greater than 3) | ++ (which value is greater than 3) | - (specific OD450 or cpm of sera sample binding to peptide divided by the specific OD450 or cpm of NHS sample binding to peptide, which value is less than 2) | Binding of maternal HIV+ serum to peptide (sera/NHS ratio) [2, 22]: - (specific OD450 or cpm of sera sample binding to peptide divided by the specific OD450 or cpm of NHS sample binding to peptide, which value is less than 2); Percent of the maternal serum samples that bound to the peptide ([2]; all 20 samples): 35%
THACVPTDPNPQEVV [Peptide 95] | Differences in binding between the transmission and non-transmission groups are noted | + (which value is between 2 to 3) | - (specific OD450 or cpm of sera sample binding to peptide divided by the specific OD450 or cpm of NHS sample binding to peptide, which value is less than 2) | - (specific OD450 or cpm of sera sample binding to peptide divided by the specific OD450 or cpm of NHS sample binding to peptide, which value is less than 2) | - (specific OD450 or cpm of sera sample binding to peptide divided by the specific OD450 or cpm of NHS sample binding to peptide, which value is less than 2) | - (specific OD450 or cpm of sera sample binding to peptide divided by the specific OD450 or cpm of NHS sample binding to peptide, which value is less than 2) | - (specific OD450 or cpm of sera sample binding to peptide divided by the specific OD450 or cpm of NHS sample binding to peptide, which value is less than 2) | - (specific OD450 or cpm of sera sample binding to peptide divided by the specific OD450 or cpm of NHS sample binding to peptide, which value is less than 2) | - (specific OD450 or cpm of sera sample binding to peptide divided by the specific OD450 or cpm of NHS sample binding to peptide, which value is less than 2) | - (specific OD450 or cpm of sera sample binding to peptide divided by the specific OD450 or cpm of NHS sample binding to peptide, which value is less than 2) | - (specific OD450 or cpm of sera sample binding to peptide divided by the specific OD450 or cpm of NHS sample binding to peptide, which value is less than 2) | + (which value is between 2 to 3) | - (specific OD450 or cpm of sera sample binding to peptide divided by the specific OD450 or cpm of NHS sample binding to peptide, which value is less than 2) | - (specific OD450 or cpm of sera sample binding to peptide divided by the specific OD450 or cpm of NHS sample binding to peptide, which value is less than 2) | ++ (which value is greater than 3) | - (specific OD450 or cpm of sera sample binding to peptide divided by the specific OD450 or cpm of NHS sample binding to peptide, which value is less than 2) | - (specific OD450 or cpm of sera sample binding to peptide divided by the specific OD450 or cpm of NHS sample binding to peptide, which value is less than 2) | - (specific OD450 or cpm of sera sample binding to peptide divided by the specific OD450 or cpm of NHS sample binding to peptide, which value is less than 2) | - (specific OD450 or cpm of sera sample binding to peptide divided by the specific OD450 or cpm of NHS sample binding to peptide, which value is less than 2) | - (specific OD450 or cpm of sera sample binding to peptide divided by the specific OD450 or cpm of NHS sample binding to peptide, which value is less than 2) | Number of maternal sera binding to peptide ([2]; 20 maternal sera): three; Binding of maternal sera to peptide (in words) ([2]; Example 3): Several maternal serum samples had reactivity; Binding of maternal HIV+ serum to peptide (sera/NHS ratio) [2, 22]: - (specific OD450 or cpm of sera sample binding to peptide divided by the specific OD450 or cpm of NHS sample binding to peptide, which value is less than 2); Number of binding maternal sera from the transmission group ([2]; vertical transmission group (7 sera)): one
